Relative viability data for seven cell lines are collected here from the supplement of paper PMC10307832.

Experiment in all cases: relative viability (nuclei count vs DMSO), 5 days (fraction); higher = more cells survive
Compound in assay [1]: CC1CC(=O)N(C2=CN=C(N=C2N1C3CCCC3)NC4=C(C=C(C=C4)C(=O)NC5CCN(CC5)C)OC)C [NPK76-II-72-1] + CC(C)C[C@H](NC(=O)[C@H](Cc1ccccc1)NC(=O)c1cnccn1)B(O)O [Bortezomib] (partner 0.002 µM)
The essentials:
(§1)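 Lung cancer cell lines were seeded in 1536-well plates and dosed by pin tool the next day, with either a single drug or a fixed anchor-drug dose combined with five library-drug doses (not always all listed) spaced in √10 steps. Five days later, one step fixed the cells and stained their nuclei (final 0.05% Triton X-100, 1% formaldehyde, 1 ug/ml Hoechst), and nuclei were counted on 4× images. Relative viability is the nuclei count in treated wells divided by the count in vehicle wells, and each value is the median of duplicate plates.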

Compound in assay [2]: CC1CC(=O)N(C2=CN=C(N=C2N1C3CCCC3)NC4=C(C=C(C=C4)C(=O)NC5CCN(CC5)C)OC)C [NPK76-II-72-1] + CS(=O)(=O)N1CCN(Cc2cc3nc(-c4cccc5[nH]ncc45)nc(N4CCOCC4)c3s2)CC1 [Pictilisib] (partner 1 µM)
The essentials:
as §1

Compound in the assay “NPK76-II-72-1 + Olaparib”: CC1CC(=O)N(C2=CN=C(N=C2N1C3CCCC3)NC4=C(C=C(C=C4)C(=O)NC5CCN(CC5)C)OC)C [NPK76-II-72-1] + O=C(c1cc(Cc2n[nH]c(=O)c3ccccc23)ccc1F)N1CCN(C(=O)C2CC2)CC1 [Olaparib] (partner 8 µM)
The essentials:
as §1

Compound in the assay “BI-2536 + Dasatinib”: CC[C@@H]1C(=O)N(C)c2cnc(Nc3ccc(C(=O)NC4CCN(C)CC4)cc3OC)nc2N1C1CCCC1 [BI-2536] + Cc1nc(Nc2ncc(C(=O)Nc3c(C)cccc3Cl)s2)cc(N2CCN(CCO)CC2)n1 [Dasatinib] (partner 0.075 µM)
The essentials:
as §1

Take NCI-H1650: the relative viability was 0.211 in assay [1] (first compound 0.01 µM); 0.191 in assay [1] (first compound 0.03162 µM); 0.183 in assay [1] (first compound 0.1 µM); 0.218 in assay [1] (first compound 0.3162 µM); 0.211 in assay [1] (first compound 1 µM); 0.569 in assay [2] (first compound 0.01 µM). Further, the relative viability was 0.534 in assay [2] (first compound 0.03162 µM); 0.596 in assay [2] (first compound 0.1 µM); 0.547 in assay [2] (first compound 0.3162 µM); 0.649 in assay [2] (first compound 1 µM); 0.661 in the assay with NPK76-II-72-1 + Olaparib (first compound 0.01 µM); 0.751 with NPK76-II-72-1 + Olaparib (first compound 0.03162 µM). For the same cell line, the relative viability with NPK76-II-72-1 + Olaparib (first compound 0.1 µM) is 0.721; with NPK76-II-72-1 + Olaparib (first compound 0.3162 µM) it was 0.82; in the assay with NPK76-II-72-1 + Olaparib (first compound 1 µM), 0.784; with BI-2536 + Dasatinib (first compound 0.01 µM) it was 0.341; with BI-2536 + Dasatinib (first compound 0.03162 µM), 0.321; in the assay with BI-2536 + Dasatinib (first compound 0.1 µM), 0.18. In addition, the relative viability came out at 0.159 with BI-2536 + Dasatinib (first compound 0.3162 µM) and 0.12 in the assay with BI-2536 + Dasatinib (first compound 1 µM).
As to NCI-H2087, the relative viability is 0.941 in assay [1] (first compound 0.01 µM); 0.861 in assay [1] (first compound 0.03162 µM); 0.63 in assay [1] (first compound 0.1 µM); 0.737 in assay [1] (first compound 0.3162 µM); 0.82 in assay [1] (first compound 1 µM); 0.895 in assay [2] (first compound 0.01 µM). The relative viability was found to be 0.838 in assay [2] (first compound 0.03162 µM); 0.895 in assay [2] (first compound 0.1 µM); 0.722 in assay [2] (first compound 0.3162 µM); 1.04 in assay [2] (first compound 1 µM); 0.532 with NPK76-II-72-1 + Olaparib (first compound 0.01 µM); 0.653 with NPK76-II-72-1 + Olaparib (first compound 0.03162 µM). The relative viability with NPK76-II-72-1 + Olaparib (first compound 0.1 µM) is 0.548; in the assay with NPK76-II-72-1 + Olaparib (first compound 0.3162 µM) it was 0.672; with NPK76-II-72-1 + Olaparib (first compound 1 µM), 0.626; in the assay with BI-2536 + Dasatinib (first compound 0.01 µM) it was 0.913; with BI-2536 + Dasatinib (first compound 0.03162 µM), 0.926; with BI-2536 + Dasatinib (first compound 0.1 µM), 0.509. The relative viability with BI-2536 + Dasatinib (first compound 0.3162 µM) came out at 0.105; with BI-2536 + Dasatinib (first compound 1 µM), 0.0876.
Take HCC-366: the relative viability was determined as 0.952 in assay [1] (first compound 0.01 µM); 1.1 in assay [1] (first compound 0.03162 µM); 1.03 in assay [1] (first compound 0.1 µM); 0.94 in assay [1] (first compound 0.3162 µM); 0.99 in assay [1] (first compound 1 µM); 0.117 in assay [2] (first compound 0.01 µM). In addition, the relative viability in assay [2] (first compound 0.03162 µM) was found to be 0.117; in assay [2] (first compound 0.1 µM), 0.128; in assay [2] (first compound 0.3162 µM), 0.196; in assay [2] (first compound 1 µM), 0.186; with NPK76-II-72-1 + Olaparib (first compound 0.01 µM), 0.328; in the assay with NPK76-II-72-1 + Olaparib (first compound 0.03162 µM) it was 0.374. Moreover, the relative viability with NPK76-II-72-1 + Olaparib (first compound 0.1 µM) turned out to be 0.469; with NPK76-II-72-1 + Olaparib (first compound 0.3162 µM), 0.39; with NPK76-II-72-1 + Olaparib (first compound 1 µM), 0.366; with BI-2536 + Dasatinib (first compound 0.01 µM) it was 0.717; with BI-2536 + Dasatinib (first compound 0.03162 µM) it was 0.653; with BI-2536 + Dasatinib (first compound 0.1 µM) it was 0.149. Also, the relative viability with BI-2536 + Dasatinib (first compound 0.3162 µM) was found to be 0.0225; in the assay with BI-2536 + Dasatinib (first compound 1 µM), 0.0238.
As to NCI-H727, the relative viability in assay [1] (first compound 0.01 µM) worked out at 0.881; in assay [1] (first compound 0.03162 µM), 0.981; in assay [1] (first compound 0.1 µM), 0.938; in assay [1] (first compound 0.3162 µM) it was 0.9; in assay [1] (first compound 1 µM) it was 0.869; in assay [2] (first compound 0.01 µM) it was 0.396. Moreover, the relative viability in assay [2] (first compound 0.03162 µM) stood at 0.428; in assay [2] (first compound 0.1 µM) it was 0.385; in assay [2] (first compound 0.3162 µM), 0.418; in assay [2] (first compound 1 µM) it was 0.319; with NPK76-II-72-1 + Olaparib (first compound 0.01 µM), 0.957; with NPK76-II-72-1 + Olaparib (first compound 0.03162 µM), 0.774. Moreover, the relative viability is 0.655 with NPK76-II-72-1 + Olaparib (first compound 0.1 µM); 0.699 in the assay with NPK76-II-72-1 + Olaparib (first compound 0.3162 µM); 0.679 with NPK76-II-72-1 + Olaparib (first compound 1 µM); 0.442 in the assay with BI-2536 + Dasatinib (first compound 0.01 µM); 0.312 with BI-2536 + Dasatinib (first compound 0.03162 µM); 0.319 with BI-2536 + Dasatinib (first compound 0.1 µM). Further, the figures for the relative viability with BI-2536 + Dasatinib (first compound 0.3162 µM) and in the assay with BI-2536 + Dasatinib (first compound 1 µM) were 0.322 and 0.227, respectively.
LU99A: the relative viability in assay [1] (first compound 0.01 µM) turned out to be 1.17; in assay [1] (first compound 0.03162 µM), 1.28; in assay [1] (first compound 0.1 µM), 1.23; in assay [1] (first compound 0.3162 µM), 0.952; in assay [1] (first compound 1 µM), 1.3; in assay [2] (first compound 0.01 µM), 0.371. For the same cell line, the relative viability in assay [2] (first compound 0.03162 µM) stood at 0.32; in assay [2] (first compound 0.1 µM) it was 0.411; in assay [2] (first compound 0.3162 µM), 0.292; in assay [2] (first compound 1 µM) it was 0.334; with NPK76-II-72-1 + Olaparib (first compound 0.01 µM), 0.259; with NPK76-II-72-1 + Olaparib (first compound 0.03162 µM), 0.244. Also, the relative viability with NPK76-II-72-1 + Olaparib (first compound 0.1 µM) amounted to 0.297; with NPK76-II-72-1 + Olaparib (first compound 0.3162 µM) it was 0.253; with NPK76-II-72-1 + Olaparib (first compound 1 µM) it was 0.285; with BI-2536 + Dasatinib (first compound 0.01 µM), 0.47; with BI-2536 + Dasatinib (first compound 0.03162 µM) it was 0.593; with BI-2536 + Dasatinib (first compound 0.1 µM), 0.178. Also, the relative viability amounted to 0.188 in the assay with BI-2536 + Dasatinib (first compound 0.3162 µM) and 0.159 in the assay with BI-2536 + Dasatinib (first compound 1 µM).
On to NCI-H647, for which the relative viability in assay [1] (first compound 0.01 µM) was determined as 0.847; in assay [1] (first compound 0.03162 µM) it was 1.1; in assay [1] (first compound 0.3162 µM), 0.853; in assay [1] (first compound 1 µM), 1.05; in assay [2] (first compound 0.01 µM), 0.38; in assay [2] (first compound 0.03162 µM) it was 0.427. Further, the relative viability in assay [2] (first compound 0.1 µM) was 0.401; in assay [2] (first compound 0.3162 µM), 0.406; in assay [2] (first compound 1 µM), 0.466; with NPK76-II-72-1 + Olaparib (first compound 0.01 µM) it was 0.633; in the assay with NPK76-II-72-1 + Olaparib (first compound 0.03162 µM) it was 0.48; with NPK76-II-72-1 + Olaparib (first compound 0.1 µM), 0.755. The relative viability with NPK76-II-72-1 + Olaparib (first compound 0.3162 µM) came to 0.46; with NPK76-II-72-1 + Olaparib (first compound 1 µM), 0.661; in the assay with BI-2536 + Dasatinib (first compound 0.01 µM) it was 0.156; with BI-2536 + Dasatinib (first compound 0.03162 µM), 0.184; with BI-2536 + Dasatinib (first compound 0.1 µM), 0.0428; with BI-2536 + Dasatinib (first compound 0.3162 µM), 0.0374. Also, the relative viability with BI-2536 + Dasatinib (first compound 1 µM) was 0.039.
In the case of HCC-78, the relative viability is 0.532 in assay [1] (first compound 0.01 µM); 0.565 in assay [1] (first compound 0.03162 µM); 0.398 in assay [1] (first compound 0.1 µM); 0.52 in assay [1] (first compound 0.3162 µM); 0.998 in assay [1] (first compound 1 µM); 0.233 in assay [2] (first compound 0.03162 µM). The relative viability in assay [2] (first compound 0.1 µM) is 0.207; in assay [2] (first compound 1 µM), 0.182; in the assay with NPK76-II-72-1 + Olaparib (first compound 0.01 µM) it was 0.86; in the assay with NPK76-II-72-1 + Olaparib (first compound 0.03162 µM), 0.872; with NPK76-II-72-1 + Olaparib (first compound 0.1 µM), 0.476; in the assay with NPK76-II-72-1 + Olaparib (first compound 0.3162 µM), 0.869. In addition, the relative viability in the assay with NPK76-II-72-1 + Olaparib (first compound 1 µM) worked out at 0.85; in the assay with BI-2536 + Dasatinib (first compound 0.01 µM), 0.454; in the assay with BI-2536 + Dasatinib (first compound 0.03162 µM), 0.374; with BI-2536 + Dasatinib (first compound 0.1 µM), 0.416; with BI-2536 + Dasatinib (first compound 0.3162 µM), 0.25; in the assay with BI-2536 + Dasatinib (first compound 1 µM), 0.17.
